From PubChem BioAssay (NCI) come the findings set out here.

Several values for one entry are separate records, joined by “and”; a condition that tells them apart may be missing. Identical values can stand only once.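 Interpolation was linear, between the two tested concentrations surrounding the appropriate level; five concentrations were tested over 48 hours in 96-well plates. Here, GI50 denotes the concentration required for 50% inhibition of growth. Definition used: TGI = concentration required for complete inhibition of growth.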 A value given as a limit tells only on which side of the number the result lay.

Among the test systems are SNB-19 CNS; 786-0 renal; EKVX NSCLC; MOLT-4 leukemia; UACC-62 melanoma; NCI-H460 lung; KM12 colon; PC-3 prostate; BT-549 breast; T-47D breast.
What all share (assay): growth of human tumour cells (NCI), 48 h

For the compound `BrC1=CC=C2NCCCCCCN=C3C=CC(Br)=CC=C3NCCCCCCN=C2C=C1`, the TGI in the assay with SNB-19 CNS, in the assay on 786-0 renal, in the assay with EKVX NSCLC, in the assay on MOLT-4 leukemia, with UACC-62 melanoma and with NCI-H460 lung was > 25.5 µM throughout. Further, the TGI in the assay with KM12 colon is > 25.5 µM.

Regarding `CC1(C)CC(=O)C(=[N+]=[N-])C(=O)C1`, the TGI with SNB-19 CNS, in the assay on 786-0 renal, in the assay with EKVX NSCLC, in the assay with UACC-62 melanoma and with KM12 colon was > 100 µM throughout.

Take `c1cc[c]([Sn]([S]c2cccc3cccnc23)([S]c2cccc3cccnc23)[c]2ccccc2)cc1`: the GI50 in the assay on SNB-19 CNS was 0.438 µM; in the assay on 786-0 renal it was 0.212 µM; with EKVX NSCLC, 0.22 µM; in the assay on MOLT-4 leukemia it was 0.101 µM; with UACC-62 melanoma, 0.186 µM; with NCI-H460 lung it was 0.228 µM. Further, in the assay with KM12 colon, the GI50 is 0.23 µM. Also, the TGI in the assay on SNB-19 CNS was 1.66 µM; with 786-0 renal, 0.502 µM; in the assay on EKVX NSCLC, 0.881 µM; in the assay with MOLT-4 leukemia, 0.542 µM; with UACC-62 melanoma, 0.43 µM; in the assay on NCI-H460 lung it was 0.643 µM. Also, the TGI in the assay with KM12 colon came out at 0.616 µM.

As to `CC(C(=O)c1ccc(Cl)cc1)C1OC(=O)C(Cl)=C1Cl` (stereo not given), the TGI was > 100 µM in the assay with SNB-19 CNS; 36 µM with 786-0 renal; > 100 µM with EKVX NSCLC; 64 µM with MOLT-4 leukemia; 46.7 µM with UACC-62 melanoma; > 100 µM in the assay on NCI-H460 lung. In addition, the TGI in the assay on KM12 colon was > 100 µM.

With `Cc1cccc2c1O/C(=C\c1ccc([N+](=O)[O-])o1)C2=O`, the GI50 in the assay with SNB-19 CNS is 2.7 µM; in the assay on 786-0 renal, 1.8 µM; in the assay on PC-3 prostate, 1.34 µM; with BT-549 breast it was 1.28 µM; in the assay on MOLT-4 leukemia, 1.52 µM; with UACC-62 melanoma, 1.26 µM. For the same compound, the figures for the GI50 with T-47D breast, in the assay on NCI-H460 lung and in the assay with KM12 colon were 1.2 µM, 0.817 µM and 1.38 µM, respectively. Besides, the TGI with SNB-19 CNS is > 33 µM; with 786-0 renal, 4.27 µM; in the assay with PC-3 prostate, 4.11 µM; with BT-549 breast it was 2.63 µM; in the assay on MOLT-4 leukemia, 5.7 µM; in the assay on UACC-62 melanoma, 2.72 µM. The TGI in the assay with T-47D breast turned out to be 3.69 µM; in the assay with NCI-H460 lung, 2.5 µM; with KM12 colon, 2.99 µM.

As for `N#C/C(N)=C(\C#N)N=Cc1csc2ccccc12`, the GI50 was 27.7 µM in the assay on SNB-19 CNS; 34.2 µM in the assay on 786-0 renal; 47.3 µM in the assay with PC-3 prostate; 27 µM in the assay on EKVX NSCLC; 4.08 µM in the assay with MOLT-4 leukemia; 28.2 µM in the assay with UACC-62 melanoma. Further, the GI50 in the assay on T-47D breast was 1.07 µM; in the assay with NCI-H460 lung it was > 100 µM; with KM12 colon it was > 100 µM. For the same compound, the TGI in the assay on SNB-19 CNS was 71.9 µM; with 786-0 renal it was > 100 µM; in the assay with PC-3 prostate, > 100 µM; in the assay with EKVX NSCLC, > 100 µM; with MOLT-4 leukemia, > 100 µM; in the assay with UACC-62 melanoma, > 100 µM. In addition, the TGI in the assay on T-47D breast is 28.5 µM; with NCI-H460 lung, > 100 µM; in the assay with KM12 colon, > 100 µM.

Regarding `CCCCN(CCCC)C(=O)C(=O)C(C)C(=O)CC` (stereo not given), the TGI in the assay on SNB-19 CNS, with 786-0 renal, in the assay with MOLT-4 leukemia, with UACC-62 melanoma, in the assay with NCI-H460 lung and in the assay with KM12 colon was > 100 µM in each case.

`Cc1cc(C)cc(Nc2ccc([N+](=O)[O-])c(NCCN3CCOCC3)n2)c1`: the TGI in the assay on 786-0 renal was 18.8 µM; in the assay with PC-3 prostate it was > 100 µM; in the assay on EKVX NSCLC it was > 100 µM; in the assay on BT-549 breast, > 100 µM; in the assay with MOLT-4 leukemia, > 100 µM; in the assay on UACC-62 melanoma it was > 100 µM. Further, the TGI with NCI-H460 lung and with KM12 colon was > 100 µM each time. In addition, the GI50 is 0.00177 µM and 0.0106 µM with PC-3 prostate; 0.000947 µM in the assay with KM12 colon.

Turning to `COc1cc(C2=NN(c3ccc(S(N)(=O)=O)cc3)C(c3ccc(Cl)cc3)C2)cc(OC)c1OC` (stereo not given), the GI50 in the assay with SNB-19 CNS was 5.48 µM; in the assay on 786-0 renal, 6.43 µM; in the assay on PC-3 prostate, 3.05 µM; with BT-549 breast, 3.8 µM; in the assay on MOLT-4 leukemia, 4.81 µM; with UACC-62 melanoma, 4.12 µM. The results for the GI50 with T-47D breast, in the assay with NCI-H460 lung and in the assay on KM12 colon were 1.74 µM, 3.95 µM and 4.79 µM, respectively. Besides, the TGI in the assay with SNB-19 CNS was > 100 µM; in the assay on 786-0 renal, > 100 µM; in the assay with PC-3 prostate it was > 100 µM; with BT-549 breast, 46.4 µM; in the assay with MOLT-4 leukemia, > 100 µM; in the assay on UACC-62 melanoma it was > 100 µM. The TGI was 14.7 µM with T-47D breast, > 100 µM with NCI-H460 lung and > 100 µM in the assay on KM12 colon.

On to `CCCCCC(O)(CCCCC)CCCCCCCCC1=C(O)c2[nH]c(=O)ccc2C(=O)C1=O`, for which the TGI was determined as 18.2 µM with SNB-19 CNS; 20.8 µM in the assay on 786-0 renal; 28.8 µM with EKVX NSCLC; 55.5 µM with MOLT-4 leukemia; 10.9 µM in the assay on UACC-62 melanoma; 24 µM with NCI-H460 lung. Also, the TGI with KM12 colon turned out to be 23.6 µM.

Turning to `c1ccc2cc(Cn3c[n+](Cc4ccc5ccccc5c4)c4ccccc43)ccc2c1`, the GI50 was 1.52 µM in the assay on 786-0 renal, 1.1 µM in the assay with PC-3 prostate and 1.54 µM in the assay on KM12 colon. Besides, the TGI was determined as 3.09 µM with 786-0 renal, 2.43 µM in the assay with PC-3 prostate and 3.15 µM in the assay with KM12 colon.

Regarding `CCCCCCNc1nc(N2CCOCC2)c2[nH]c(NCCCCCC)nc2n1`, the GI50 in the assay on SNB-19 CNS is 1.8 µM; in the assay with 786-0 renal it was 1.8 µM; in the assay on PC-3 prostate it was 1.68 µM; in the assay with BT-549 breast, 1.66 µM; in the assay with UACC-62 melanoma, 1.63 µM; with NCI-H460 lung, 1.55 µM. For the same compound, the GI50 in the assay with KM12 colon was 1.67 µM. Besides, the TGI came out at 3.41 µM with SNB-19 CNS; 3.19 µM with 786-0 renal; 3.54 µM with PC-3 prostate; 3.04 µM in the assay on BT-549 breast; 3.12 µM with UACC-62 melanoma; 2.97 µM in the assay on NCI-H460 lung. This compound also returned a TGI in the assay with KM12 colon of 3.06 µM.
